Reference: PubChem BioAssay AID248 (DTP/NCI, 2004)
Where “and” joins values, the source holds several entries; their conditions need not be identical. Equal entries are not always repeated. Inconclusive results and toxic doses are left out.

System: L1210 leukemia ip in BDF1 mice, survival T/C
Assay: NCI In Vivo Anticancer Drug Screen. Data for tumor model L1210 Leukemia (intraperitoneal) in B6D2F1 (BDF1) mice
Details: endpoint: mean survival time, higher = longer survival
Outline: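 In this screen, tumor-bearing mice given compound are compared to those given vehicle, and their survival values are reported as a treated-to-control quotient.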

[1] = dose: 50.0 mg/kg/injection, schedule: Q04DX003 (ip), vehicle: Klucel (hydroxypropylcellulose) (HPC)
[2] = dose: 100.0 mg/kg/injection, schedule: Q01DX009 (ip), vehicle: Klucel (hydroxypropylcellulose) (HPC)
[3] = dose: 100.0 mg/kg/injection, schedule: Q04DX003 (ip), vehicle: Klucel (hydroxypropylcellulose) (HPC)
[4] = dose: 200.0 mg/kg/injection, schedule: Q01DX009 (ip), vehicle: Klucel (hydroxypropylcellulose) (HPC)
[5] = dose: 200.0 mg/kg/injection, schedule: Q04DX003 (ip), vehicle: Klucel (hydroxypropylcellulose) (HPC)
[6] = dose: 400.0 mg/kg/injection, schedule: Q01DX009 (ip), vehicle: Klucel (hydroxypropylcellulose) (HPC)
[7] = dose: 400.0 mg/kg/injection, schedule: Q04DX003 (ip), vehicle: Klucel (hydroxypropylcellulose) (HPC)
[8] = dose: 100.0 mg/kg/injection, schedule: Q01DX009 (ip), vehicle: saline with Tween-80
[9] = dose: 200.0 mg/kg/injection, schedule: Q01DX009 (ip), vehicle: saline with Tween-80
[10] = dose: 12.5 mg/kg/injection, schedule: Q04DX003 (ip), vehicle: saline
[11] = dose: 25.0 mg/kg/injection, schedule: Q04DX003 (ip), vehicle: saline
[12] = dose: 100.0 mg/kg/injection, schedule: Q01DX001 (ip), vehicle: saline
[13] = dose: 200.0 mg/kg/injection, schedule: Q01DX001 (ip), vehicle: saline
[14] = dose: 100.0 mg/kg/injection, schedule: Q04DX003 (ip), vehicle: saline
[15] = dose: 200.0 mg/kg/injection, schedule: Q04DX003 (ip), vehicle: saline
[16] = dose: 400.0 mg/kg/injection, schedule: Q04DX003 (ip), vehicle: saline

Compound: S=c1sscc1-c1ccccc1
- T/C [1]: 95 % of control
- T/C [2]: 108 % of control
- T/C [3]: 111 % of control
- T/C [4]: 112 % of control
- T/C [5]: 95 % of control
- T/C [6]: 110 % of control
- T/C [7]: 98 % of control

Compound: COC(=O)c1ccc([N+](=O)[O-])c(OC)c1
- T/C (dose: 75.0 mg/kg/injection, schedule: Q01DX001 (ip), vehicle: saline): 91 % of control
- T/C (dose: 75.0 mg/kg/injection, schedule: Q04DX003 (ip), vehicle: saline): 94 % of control
- T/C (dose: 150.0 mg/kg/injection, schedule: Q01DX001 (ip), vehicle: saline): 91 % of control
- T/C (dose: 150.0 mg/kg/injection, schedule: Q04DX003 (ip), vehicle: saline): 108 % of control
- T/C (dose: 300.0 mg/kg/injection, schedule: Q01DX001 (ip), vehicle: saline): 93 % of control
- T/C (dose: 300.0 mg/kg/injection, schedule: Q04DX003 (ip), vehicle: saline): 101 % of control

Compound: CC(C)CCCCc1c[nH]c(=O)[nH]c1=O
- T/C [8]: 107 % of control
- T/C (dose: 100.0 mg/kg/injection, schedule: Q04DX003 (ip), vehicle: saline with Tween-80): 94 % of control
- T/C [9]: 104 % of control
- T/C (dose: 200.0 mg/kg/injection, schedule: Q04DX003 (ip), vehicle: saline with Tween-80): 97 % of control
- T/C (dose: 400.0 mg/kg/injection, schedule: Q01DX009 (ip), vehicle: saline with Tween-80): 101 % of control
- T/C (dose: 400.0 mg/kg/injection, schedule: Q04DX003 (ip), vehicle: saline with Tween-80): 92 % of control

Compound: Nc1ccc(O)cc1
- T/C [10]: 92 % of control
- T/C [11]: 95 % of control
- T/C (dose: 35.0 mg/kg/injection, schedule: Q01DX Z (ip), vehicle: acid diluted with saline): 92 % of control
- T/C (dose: 35.0 mg/kg/injection, schedule: Q01DX Z (ip), vehicle: other): 97 % of control
- T/C (dose: 40.0 mg/kg/injection, schedule: Q01DX Z (ip), vehicle: methylcellulose (MC)): 113 % of control
- T/C (dose: 53.0 mg/kg/injection, schedule: Q01DX010 (sc), vehicle: saline): 94 % of control
- T/C (dose: 53.0 mg/kg/injection, schedule: Q01DX Z (ip), vehicle: acid diluted with saline): 104 % of control
- T/C (dose: 53.0 mg/kg/injection, schedule: Q01DX Z (ip), vehicle: other): 103 % of control
- T/C (dose: 53.0 mg/kg/injection, schedule: Q01DX Z (ip), vehicle: saline): 98 % of control
- T/C (dose: 80.0 mg/kg/injection, schedule: Q01DX Z (ip), vehicle: acid diluted with saline): 108 % of control
- T/C (dose: 80.0 mg/kg/injection, schedule: Q01DX Z (ip), vehicle: other): 101 % of control
- T/C (dose: 80.0 mg/kg/injection, schedule: Q01DX Z (ip), vehicle: saline): 114 % of control
- T/C (dose: 120.0 mg/kg/injection, schedule: Q01DX010 (sc), vehicle: saline): 98 % of control
- T/C (dose: 120.0 mg/kg/injection, schedule: Q01DX Z (ip), vehicle: acid diluted with saline): 115 % of control
- T/C (dose: 120.0 mg/kg/injection, schedule: Q01DX Z (ip), vehicle: other): 114 % of control
- T/C (dose: 120.0 mg/kg/injection, schedule: Q01DX Z (ip), vehicle: saline): 112 % of control
- T/C (dose: 160.0 mg/kg/injection, schedule: Q01DX Z (oral), vehicle: methylcellulose (MC)): 113 % of control
- T/C (dose: 212.0 mg/kg/injection, schedule: Q01DX013 (oral), vehicle: saline): 109 % of control
- T/C (dose: 320.0 mg/kg/injection, schedule: Q01DX Z (ip), vehicle: methylcellulose (MC)): 107 % of control
- T/C (dose: 320.0 mg/kg/injection, schedule: Q01DX Z (oral), vehicle: methylcellulose (MC)): 108 % of control

Compound: CC(C)(C)CC(C)(C)c1ccc(OCCOc2ccc(C(=O)O)cc2N)cc1
- T/C [12]: 92 % of control
- T/C [13]: 96 % of control

Compound: O=C(O)/C=C/c1ccccn1
- T/C (dose: 20.0 mg/kg/injection, schedule: Q04DX003 (ip), vehicle: Klucel (hydroxypropylcellulose) (HPC)): 102 % of control
- T/C (dose: 40.0 mg/kg/injection, schedule: Q04DX003 (ip), vehicle: Klucel (hydroxypropylcellulose) (HPC)): 100 % of control
- T/C (dose: 80.0 mg/kg/injection, schedule: Q04DX003 (ip), vehicle: Klucel (hydroxypropylcellulose) (HPC)): 94 % of control
- T/C [3]: 93 % of control
- T/C [5]: 100 % of control

Compound: CN(C)N=Nc1ccccc1C(F)(F)F
- T/C (dose: 50.0 mg/kg/injection, schedule: Q01DX009 (ip), vehicle: Klucel (hydroxypropylcellulose) (HPC)): 109 % of control
- T/C [2]: 103 % of control and 107 % of control
- T/C [3]: 104 % of control
- T/C [4]: 107 % of control and 108 % of control
- T/C [5]: 104 % of control
- T/C [6]: 111 % of control and 114 % of control
- T/C [7]: 109 % of control

Compound: CCCCOCC(C)O (configuration not stated)
- T/C [14]: 91 % of control
- T/C [15]: 96 % of control
- T/C [16]: 96 % of control

Compound: CC(C)c1ccc(NC(=O)Nc2cc(Cl)ccc2Cl)cc1
- T/C (dose: 100.0 mg/kg/injection, schedule: Q01DX009 (ip), vehicle: gum acacia): 89 % of control
- T/C (dose: 200.0 mg/kg/injection, schedule: Q04DX003 (ip), vehicle: gum acacia): 89 % of control
- T/C (dose: 400.0 mg/kg/injection, schedule: Q01DX009 (ip), vehicle: gum acacia): 89 % of control
- T/C (dose: 400.0 mg/kg/injection, schedule: Q04DX003 (ip), vehicle: gum acacia): 87 % of control

Compound: C(=C\c1ccc(-n2nc3ccc4ccccc4c3n2)cc1)/c1ccccc1
- T/C (dose: 50.0 mg/kg/injection, schedule: Q01DX009 (ip), vehicle: saline with Tween-80): 97 % of control
- T/C [8]: 102 % of control
- T/C [9]: 102 % of control

Compound: COc1cccc2c1C(=O)c1c(O)c3c(c(O)c1C2=O)C[C@@](O)(C(=O)COC(=O)c1cccnc1)C[C@@H]3OC1CC(N)C(O)C(C)O1 (some centres not stated)
- T/C (dose: 1.6 mg/kg/injection, schedule: Q01DX009 (ip), vehicle: saline): 153 % of control
- T/C (dose: 2.4 mg/kg/injection, schedule: Q01DX009 (ip), vehicle: saline): 153 % of control

Compound: CC(=O)c1cccc(NS(=O)(=O)c2ccc(Cl)cc2)c1
- T/C (dose: 100.0 mg/kg/injection, schedule: Q04DX002 (ip), vehicle: Klucel (hydroxypropylcellulose) (HPC)): 94 % of control
- T/C (dose: 200.0 mg/kg/injection, schedule: Q04DX002 (ip), vehicle: Klucel (hydroxypropylcellulose) (HPC)): 100 % of control
- T/C (dose: 400.0 mg/kg/injection, schedule: Q04DX002 (ip), vehicle: Klucel (hydroxypropylcellulose) (HPC)): 91 % of control

Compound: O=C(O)c1cc2ccccc2c(N=Nc2ccc(S(=O)(=O)N(CCCl)CCCl)cc2)c1O
- T/C [2]: 113 % of control
- T/C [4]: 103 % of control
- T/C [6]: 111 % of control

Compound: O=C(Nc1ccc(C2=NCCN2)cc1)N1CCN(C(=O)Nc2ccc(C3=NCCN3)cc2)CC1
- T/C (dose: 250.0 mg/kg/injection, schedule: Q01DX Z (ip), vehicle: water): 87 % of control

Compound: c1ccc(C2=C(c3ccccc3)NC(c3ccccc3)N2)cc1
- T/C (dose: 12.5 mg/kg/injection, schedule: Q04DX003 (ip), vehicle: Klucel (hydroxypropylcellulose) (HPC)): 102 % of control
- T/C (dose: 25.0 mg/kg/injection, schedule: Q04DX003 (ip), vehicle: Klucel (hydroxypropylcellulose) (HPC)): 100 % of control
- T/C [1]: 98 % of control
- T/C [3]: 96 % of control

Compound: NC(=O)Oc1ccccc1
- T/C [12]: 98 % of control
- T/C (dose: 100.0 mg/kg/injection, schedule: Q01DX009 (ip), vehicle: saline): 102 % of control
- T/C [14]: 95 % of control
- T/C [13]: 98 % of control
- T/C (dose: 200.0 mg/kg/injection, schedule: Q01DX009 (ip), vehicle: saline): 111 % of control
- T/C [15]: 98 % of control
- T/C (dose: 400.0 mg/kg/injection, schedule: Q01DX001 (ip), vehicle: saline): 96 % of control
- T/C (dose: 400.0 mg/kg/injection, schedule: Q01DX009 (ip), vehicle: saline): 120 % of control
- T/C [16]: 103 % of control

Compound: CC([NH-])C(=O)O.CC([NH-])C(=O)O.[Ni+2] (configuration not stated)
- T/C (dose: 3.12 mg/kg/injection, schedule: Q01DX009 (ip), vehicle: saline): 98 % of control
- T/C (dose: 6.25 mg/kg/injection, schedule: Q01DX009 (ip), vehicle: saline): 101 % of control
- T/C (dose: 6.25 mg/kg/injection, schedule: Q04DX003 (ip), vehicle: saline): 102 % of control
- T/C (dose: 12.5 mg/kg/injection, schedule: Q01DX009 (ip), vehicle: saline): 95 % of control
- T/C [10]: 98 % of control and 104 % of control
- T/C [11]: 105 % of control and 109 % of control
- T/C (dose: 50.0 mg/kg/injection, schedule: Q04DX003 (ip), vehicle: saline): 101 % of control
